Where two headings read alike, the source gives them in different places.
Assays:
[1] = test system: rat cardiomyocytes; conditions: inhibition of adenosine deaminase alone; cited from earlier work
[2] = test system: human umbillical vein endothelial cells; assay: Inhibition of neutrophil adherence to endothelial cells; assay type: cell-based; conditions: fMLP-stimulated human neutrophils, 2 hours at 37°C; reversed by adenosine deaminase; Figure 2
Method: The ability of an adenosine kinase inhibitor to affect neutrophil adherence to fibroblasts and endothelial cells was evaluated in a cell culture model.
These incubations were carried out in the presence of fMLP-stimulated human neutrophils isolated from whole blood (1.25 x 10^6/ml) with or without adenosine deaminase (0.125 U/ml). At the end of the incubation, the medium was removed and the monolayers of fibroblasts or endothelial cells and adherent neutrophils were fixed by addition of formaldehyde (3.7%) and, after washing to remove non-adherent neutrophils, adherent neutrophils were stained with Weigart's hematoxylin and counted under a light microscope.

[3] = biological target: adenosine kinase (Bos taurus, UniProt A0AAA9TET8); assay: Adenosine kinase inhibition in intact cells; assay type: cell-based
Method: Inhibition of adenosine kinase in intact cells was determined from the amount of incorporation of radioisotope from adenosine into the adenylates (AMP, ADP and ATP) in the presence of adenosine deaminase inhibition. Capillary endothelial cells from bovine heart were incubated for 60 min. With 20 µM 2'-deoxycoformycin, a potent adenosine deaminase inhibitor. Different concentrations of the test compounds were then added to the cells and incubated for 15 min. after which 5 µM [^3H]adenosine was added and the cells incubated for a further 15 min. The media was then discarded and the cells were treated with 50 µl 0.4 M perchloric acid, centrifuged and the supernatants neutralized with 100 µl alanine: freon (1:4). Radiosotope-labelled adenylates were separated by TLC on PEI cellulose plates developed in methanol:water (1:1) and incorporation of ^3H determined by scintillation counting.

[4] = biological target: T1, A1 receptor (Homo sapiens, UniProt P30542); assay: A1 receptor binding affinity ([3H]CHA, neuronal membrane); conditions: 1 nM [3H]CHA, 60 min at 37°C
T1 construct: 1 nM [^3H]CHA and 0.5 mg of neuronal membrane; from tissue
T1 sequence (P30542 1-326): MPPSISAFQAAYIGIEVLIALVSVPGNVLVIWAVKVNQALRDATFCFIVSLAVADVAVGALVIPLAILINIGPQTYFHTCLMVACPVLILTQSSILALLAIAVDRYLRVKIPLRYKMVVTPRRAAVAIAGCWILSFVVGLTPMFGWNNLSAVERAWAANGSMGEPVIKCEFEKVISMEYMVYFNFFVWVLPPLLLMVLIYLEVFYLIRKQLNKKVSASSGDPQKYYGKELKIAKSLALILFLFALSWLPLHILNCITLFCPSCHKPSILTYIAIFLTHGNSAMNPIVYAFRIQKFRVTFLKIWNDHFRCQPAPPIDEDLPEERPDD
Excerpt: The reaction was stopped and unbound [^3H]CHA removed by rapid filtration through Whatman GF/B filters. The filter papers were then solubilized and bound [^3H]CHA determined by scintillation counting.

[5] = test system: Anesthetized male dogs; assay: Preclinical model of stable angina (pacing-induced ischemia); assay type: in vivo
Method: GP-1-515, was evaluated for its ability to prevent cumulative cardiac dysfunction associated with repeated episodes of pacing-induced ischemia.
Anesthetized male dogs were instrumented to measure regional myocardial wall thickening during right atrial pacing (Young & Mullane, Am. J. Physio., 1991, 261:1570-1577). Animals were subjected to six repeated episodes of pacing. A continuous IV infusion of […] of GP-1-515 or saline (control) -was administered post pace #1. […] TABLE B

[6] = biological target: T2, calf intestinal mucosa adenosine deaminase (Bos taurus, UniProt P56658); assay: Inhibition of adenosine deaminase activity; assay type: biochemical; conditions: 10 min at 37°C
T2 construct: 0.002 units of calf intestinal mucosa adenosine deaminase; from tissue; host or cells: calf intestinal mucosa
T2 sequence (P56658 1-363): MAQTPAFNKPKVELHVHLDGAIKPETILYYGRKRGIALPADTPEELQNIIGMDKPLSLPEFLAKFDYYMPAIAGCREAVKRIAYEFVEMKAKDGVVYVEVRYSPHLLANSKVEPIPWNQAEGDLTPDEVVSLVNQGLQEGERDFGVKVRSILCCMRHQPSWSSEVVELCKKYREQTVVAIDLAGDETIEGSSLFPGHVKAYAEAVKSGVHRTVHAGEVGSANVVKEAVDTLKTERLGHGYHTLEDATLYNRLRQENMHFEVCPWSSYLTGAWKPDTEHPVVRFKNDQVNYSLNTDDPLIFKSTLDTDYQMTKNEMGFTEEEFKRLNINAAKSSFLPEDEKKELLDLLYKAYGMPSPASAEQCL
Method: Different concentrations of the test compounds were incubated in the assay mixture for 10 min at 37°C. The reaction was monitored continuously for oxidation of NADH from the change in absorbance at 340nm.

[7] = biological target: purified pig heart adenosine kinase (Sus scrofa, UniProt A0A5G2R0F5); assay: Inhibition of adenosine kinase activity; assay type: biochemical
Method: Inhibition of enzyme activity was determined using a 0.1 ml assay mixture containing 50 mM Tris-maleate, pH 7.0, 0.1% (w/v) BSA, 1 mM ATP, 1 mM MgCl2, 0.5 µM [U-^14C] adenosine (500 mCi/mmol) and 0.1 µg of purified pig heart adenosine kinase. Different concentrations of the test compounds were incubated in the assay mixture for 20 min at 37°C. From each reaction mixture, 20 µl portions were removed and spotted on 2 cm^2 pieces of Whatman DE81 filter paper. The papers were then washed to remove [^14C] adenosine in 1mM ammonium formate followed by deionized water and finally 95% ethanol. The papers were dried, and [^14C]AMP measured by scintillation counting. Activities were determined from the amount of [^14C]AMP formed. This is a suitable in vitro test method for determining adenosine kinase enzyme inhibition activity.

[8] = test system: Isolated guinea pig hearts; assay: Functional recovery in isolated hearts after low flow ischemia (Langendorff); conditions: Conc. 0.3 ( M) in perfusion buffer; for Functional Recovery (% preischemic LVDP): 45 minutes low flow ischemia, 30 minutes reperfusion
Method: The ability of a number of adenosine kinase inhibitors to improve the recovery of post-ischemic function was examined in an isolated guinea pig heart model.
Isolated guinea pig hearts were cannulated via the ascending aorta and attached to a perfusion apparatus according to the method of Langendorff. The hearts were perfused at a constant pressure of 60 cm of H2O with a modified Krebs-Hanseleit buffer (pH 7.4) at 37°C. Left ventricular developed pressures (LVDP) were monitored continuously using a latex balloon attached to a pressure transducer. Coronary flows were measured gravimetrically by timed collection of pulmonary effluent. Following equilibration of the hearts for a period of 30 minutes, the hearts were subjected to 45 minutes of low flow ischemia, by reducing the perfusion pressure to 10 cm of H2O, and then reperfused for 30 minutes by restoring the pressure to its. original level (60 cm of H2O). The adenosine kinase inhibitors GP-1-238, GP-1-515 and GP1-547 were added to the perfusion buffer at the final concentrations specified. […] TABLE A

[9] = test system: platelet-induced coronary thrombosis; assay: Canine model of platelet-induced coronary thrombosis (Folts, cyclic flow reductions); assay type: in vivo
Method: GP-1-515 was tested in a canine model of platelet-induced coronary thrombosis (Folts, J., Circulation, 1991, 83[Suppl. IV]:IV-3-IV-14). In this model, platelets cyclically aggregate and embolize causing cyclic flow reductions (CFRs) that are quantitated by the frequency and the change in coronary blood flow from low point to peak with each cycle. […] TABLE C

[10] = test system: guinea pig ileum; assay: Inhibition of contraction in isolated ileum; conditions: electrically stimulated; reversal by 8SPT and ADA; Figure 3
Method: The ability of adenosine kinase inhibition to affect stimulated contraction of muscle strips from the isolated ileum has been investigated.
Parallel platinum electrodes were used to deliver electrical current at 1 minute intervals at a voltage adequate to induce contraction of 90% of maximal. The adenosine kinase inhibitors, GP-1-515 or GP-1-547 were added to the tissue baths at different concentrations, with or without either the adenosine receptor antagonist, 8-sulphophenyltheophylline (8SPT) or adenosine deaminase (ADA), and the effects on contraction monitored.

[11] = in human blood; cited from earlier work
[12] = read-out: IC50 in the adenosine kinase inhibition assay

Chain of purified pig heart adenosine kinase (A0A5G2R0F5 1-362): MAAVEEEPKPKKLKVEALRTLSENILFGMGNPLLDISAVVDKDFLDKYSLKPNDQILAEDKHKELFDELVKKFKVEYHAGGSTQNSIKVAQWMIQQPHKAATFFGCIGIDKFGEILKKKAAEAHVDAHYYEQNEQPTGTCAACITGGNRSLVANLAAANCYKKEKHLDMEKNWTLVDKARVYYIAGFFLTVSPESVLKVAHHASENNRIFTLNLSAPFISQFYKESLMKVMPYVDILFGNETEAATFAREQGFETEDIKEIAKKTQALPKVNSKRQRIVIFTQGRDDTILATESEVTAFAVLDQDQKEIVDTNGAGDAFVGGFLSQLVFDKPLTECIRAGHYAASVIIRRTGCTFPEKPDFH
Chain of adenosine kinase (A0AAA9TET8 1-345): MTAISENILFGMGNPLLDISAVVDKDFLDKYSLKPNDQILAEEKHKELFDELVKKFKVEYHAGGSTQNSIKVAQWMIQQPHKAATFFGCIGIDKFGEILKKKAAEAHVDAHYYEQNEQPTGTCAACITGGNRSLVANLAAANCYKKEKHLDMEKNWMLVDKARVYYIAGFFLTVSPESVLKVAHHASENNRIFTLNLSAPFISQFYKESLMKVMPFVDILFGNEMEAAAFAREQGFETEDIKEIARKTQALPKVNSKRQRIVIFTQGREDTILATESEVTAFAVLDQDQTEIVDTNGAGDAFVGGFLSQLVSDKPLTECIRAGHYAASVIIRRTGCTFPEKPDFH

OC[C@H]1O[C@@H](n2cnc3c2N=CNC[C@H]3O)C[C@@H]1O [2'-deoxycoformycin]
adenosine release from the cells [1]: no effect on adenosine release

CNc1ncnc2c1ncn2[C@@H]1O[C@H](CN)[C@@H](O)[C@H]1O [GP-1-272]
neutrophil adhesion to endothelial cells [2]: inhibit neutrophil adhesion to endothelial cells

NC[C@H]1O[C@@H](n2nc(Br)c3c(N)ncnc32)[C@H](O)[C@@H]1O [GP-1-515]
IC50 ([3]; Capillary endothelial cells from bovine heart, 20 µM 2'-deoxycoformycin; read-out: IC50 in the adenosine kinase inhibition assay in intact cells): 0.009 µM | IC50 [4]: > 100 µM | % of Non-Ischemic Wall Thickening ([5]; Pace # 1 (infusion started post pace #1)): 39.8 ± 3.2% | % of Non-Ischemic Wall Thickening ([5]; Pace # 2, continuous IV infusion of 1 g/kg/min): 43.6 ± 12.0% | % of Non-Ischemic Wall Thickening ([5]; Pace # 3, continuous IV infusion of 1 g/kg/min): 34.0 ± 19.0% | % of Non-Ischemic Wall Thickening ([5]; Pace # 4, continuous IV infusion of 1 g/kg/min): 50.5 ± 21.3% | % of Non-Ischemic Wall Thickening ([5]; Pace # 5, continuous IV infusion of 1 g/kg/min): 75.6 ± 19.4% | % of Non-Ischemic Wall Thickening ([5]; Pace # 6, continuous IV infusion of 1 g/kg/min): 62.6 ± 17.1% | IC50 [6]: > 1000 µM | IC50 [7]: < 0.01 µM | Preischemic Flow [8]: 6.5 ± 0.3 mL/min/g | Functional Recovery (% preischemic LVDP) [8]: 79.0 ± 3.4 % preischemic LVDP | (N abolished)/(N total) ([9]; 0.03 (dose, unit not given)): 1/8 | CFR (D flow) ([9]; 0.03 (dose, unit not given)): 10.1 ± 2.6 (n=7) | CFR (freq.) ([9]; 0.03 (dose, unit not given)): 3.0 ± 0.6 (n=7) | (N abolished)/(N total) ([9]; 0.1 (dose, unit not given)): 3/8 | CFR (D flow) ([9]; 0.1 (dose, unit not given)): 11.0 ± 2.1 (n=5) | CFR (freq.) ([9]; 0.1 (dose, unit not given)): 3.4 ± 0.8 (n=5) | (N abolished)/(N total) ([9]; 0.3 (dose, unit not given)): 3/8 | CFR (D flow) ([9]; 0.3 (dose, unit not given)): 14.1 ± 1.9 (n=5) | CFR (freq.) ([9]; 0.3 (dose, unit not given)): 4.2 ± 0.6 (n=5) | CFRs abolished (animals) ([9]; summary): 3 of 8 | contraction of longitudinal muscle of the ileum [10]: Inhibition of contraction

NC[C@H]1O[C@@H](n2nc(I)c3c(N)ncnc32)[C@H](O)[C@@H]1O [GP-1-547]
Preischemic Flow [8]: 6.2 ± 0.3 mL/min/g | Functional Recovery (% preischemic LVDP) [8]: 79.0 ± 3.1 % preischemic LVDP | contraction of longitudinal muscle of the ileum [10]: Inhibition of contraction

NC[C@H]1O[C@@H](n2cc(Br)c3c(Cl)ncnc32)[C@H](O)[C@@H]1O [GP-1-608, 7-(5-Amino-5-deoxy-1-β-D-ribofuranosyl)-5-bromo-4-chloropyrrolo [2,3-d]pyrimidine]
IC50 [7, 12]: < 0.01 µM

C[C@H]1O[C@@H](n2nc(-c3ccccc3)c3c(Nc4ccccc4)ncnc32)[C@H](O)[C@@H]1O [GP-1-665]
IC50 ([3]; read-out: IC50 in the adenosine kinase inhibition assay in intact cells; Capillary endothelial cells from bovine heart, 20 µM 2'-deoxycoformycin): 0.0045 µM | IC50 [7, 12]: < 0.01 µM

[N-]=[N+]=NC[C@H]1O[C@@H](n2nc(-c3ccccc3)c3c(Nc4ccccc4)ncnc32)[C@H](O)[C@@H]1O [GP-1-667]
IC50 [7, 12]: < 0.01 µM

OC[C@H]1O[C@@H](n2nc(-c3ccccc3)c3c(Nc4ccccc4)ncnc32)[C@H](O)[C@@H]1O [GP-1-695]
IC50 [7, 12]: < 0.01 µM

NC[C@H]1O[C@@H](n2nc(-c3ccccc3)c3c(Nc4ccccc4)ncnc32)[C@H](O)[C@@H]1O [GP-1-704]
IC50 [7, 12]: < 0.01 µM

Nc1ncnc2c1ncn2[C@@H]1O[C@H](CO)[C@@H](O)[C@H]1O [adenosine]
half life [11]: < 1 s

Reference: patent EP0496617B1, “Adenosine kinase inhibitors” (priority 1991, dated 1992)
